Article PMC8404199, “Structure–Activity Relationships of Triple-Action Platinum(IV) Prodrugs with Albumin-Binding Properties and Immunomodulating Ligands” (Journal of Medicinal Chemistry, 2021)
Read-outs that look alike come from different tables or passages of the source.

What was measured:
[1] = Organ distribution of platinum in SKOV3-bearing SCID mice; settings: 24 h after single iv dose equimolar to 9 mg/kg oxaliplatin
Experimental: For tissue digestion, approx. 25–50 mg of tissue was weighed into perfluoralkoxy tubes, and 2 mL of HNO3 and 100 μL H2O2 (30%, Suprapur, Merck, Darmstadt, Germany) were added. The solutions were placed on a hot plate and heated up for 7 h using a temperature program with a maximum of 200 °C. The liquids were transferred to 15 mL tubes with the remaining solution being removed by washing twice with 4 mL of ultrapure water.
Platinum concentrations were measured using an Agilent 7800 ICP-QMS instrument (Agilent Technologies, Tokyo, Japan) equipped with an Agilent SPS 4 autosampler (Agilent Technologies, Tokyo, Japan) and a MicroMist nebulizer at a sample uptake rate of approx. 0.2 mL/min. […] All of the measured samples were blank corrected (for the cell culture data, wells containing no cells were used). Elemental standard solutions were purchased from Labkings (Hilversum, The Netherlands). The instrument was tuned on a daily basis.
SKOV3 cells (1.5 × 10^6 cells in 50 μL serum-free medium) were injected subcutaneously into the right flank of male SCID mice. […] Then, the animals were sacrificed by cervical dislocation, and tumors and organs were collected for the measurement with ICP–MS. For plasma isolation, blood was collected in ethylenediaminetetraacetic acid (EDTA)-coated tubes and centrifuged for 10 min at 900g at 4 °C. Plasma was transferred to a new tube and centrifuged once more to remove residual red blood cells.

[2] = tested on: CT26 colon cancer allografts; test: Anticancer activity against CT26 allografts in Balb/c mice; type: in vivo; settings: iv, equimolar to 9 mg/kg oxaliplatin; for anticancer activity against CT26 tumors (in words): twice a week for 2 weeks
Experimental: Every day, the animals were monitored for body weight and the enhanced stress level, and the tumor size was measured using a caliper according to the formula length × width^2/2.

[3] = tested on: VM7 melanoma cancer cells; test: MTT cytotoxicity assay in VM7 cells; type: cell-based, human; settings: 72 h
Experimental: (§1) The cells were seeded at 3500–6000 cells/well in 96-well plates depending on the proliferation rate of the respective cell line and allowed to recover for 24 h. Subsequently, the cells were treated at indicated concentrations for 48 or 72 h. Cells were additionally incubated with 5-fold equimolar concentrations of ascorbic acid to increase the reduction rate of the compounds. Cell viability was measured by the MTT-based vitality assay (EZ4U; Biomedica, Vienna, Austria), following the manufacturer’s recommendations.

[4] = tested on: human hepatic cell line (WRL68); test: MTT cytotoxicity assay in non-malignant WRL68 cells; type: cell-based; settings: 72 h
Experimental: as §1

[5] = tested on: human embryonic kidney cells (HEK293); test: MTT cytotoxicity assay in non-malignant HEK293 cells; type: cell-based; settings: 72 h
Experimental: as §1

[6] = tested on: murine CT26 colon cancer cells; test: MTT cytotoxicity assay in CT26 cells; type: cell-based
Experimental: (§2) Cells were additionally incubated with 5-fold equimolar concentrations of ascorbic acid to increase the reduction rate of the compounds. Cell viability was measured by the MTT-based vitality assay (EZ4U; Biomedica, Vienna, Austria), following the manufacturer’s recommendations.

[7] = tested on: human HCT116 colon cancer cells; test: MTT cytotoxicity assay in HCT116 cells; type: cell-based
Experimental: as §2

SKOV3 cancer cells = test: Long-term cytotoxicity assay (crystal violet) in SKOV3 cells; type: cell-based, human; settings: 168 h, crystal violet stain, mean ± SD
Experimental: SKOV3 cells were seeded in duplicates at 5000 cells/well in 24-well plates and allowed to recover for 24 h. Subsequently, the cells were treated at the indicated concentrations for 168 h. Cells were fixed with ice-cold methanol (20 min at 4 °C), washed with PBS, and stained with crystal violet. Subsequently, colony formation was inspected, and the fluorescence signal was detected using Typhoon Trio imager (GE Healthcare, Little Chalfont, UK) at 610/30 nm BP and analyzed by ImageJ software.

human SKOV3 cancer cells = test: MTT cytotoxicity assay in SKOV3 cells; type: cell-based; settings: 72 h incubation
Experimental: as §1

[8] = log D7.4 determination by shake flask method and ICP-MS; type: physicochemical; settings: n-octanol/phosphate buffer pH 7.4, Pt by ICP-MS
Experimental: 50 mM stock solutions of the succinimide complexes in DMF were diluted in phosphate buffer (20 mM, pH 7.4, pre-saturated with n-octanol) to a final concentration of 50 μM drug and 0.1% DMF. The platinum content of these aqueous solutions was measured by ICP–MS (see above). The solutions were mixed 1:1 with n-octanol and shaken on a 360° rotatable rack for 3 h. The solutions were centrifuged for 5 min (860g, RT), the aqueous layers were carefully removed, and their Pt content was measured by ICP–MS. Experiments were performed and measured in duplicates, and averages were used for further calculations. log D7.4 values were calculated by the following equation [drawing 1]

SKOV3 cell lysates = test: Reduction and 1-MDT release in SKOV3 lysates; type: in vitro ADME, human; settings: 100 μM, 37 °C
Experimental: SKOV3 cells were grown in four T225 […] cell culture flasks to reach a high cell number. On the day of cell lysate isolation, cells were washed with PBS, scraped from the surface, and centrifuged. Each cell pellet was lysed in ∼160 μL lysis buffer (15 mM NaCl 0.5% Triton X, ultrapure) and incubated on ice for 1 h. The samples were then centrifuged for 15 min at 14,000 rpm (4 °C), and the cleared lysate was pooled and kept at −80 °C until analysis. Cell lysates were treated with 2 mM stock solutions of respective complexes in 4% DMF and phosphate buffer (100 mM, pH 7.4) to obtain a final compound concentration of 100 μM and incubated at 37 °C. After 0, 4, 24, and 72 h, three volume equivalents of cold MeOH were added to sample aliquots. Samples were stored at 4 °C for 10 min and centrifuged (15,080g, 4 °C, 10 min). LC–MS analysis of the supernatant was performed on an Agilent 1260 Infinity system using a Waters Atlantis T3 column (150 mm × 4.6 mm) and absorption detection at 230 nm, coupled to a Bruker amaZon SL ESI-IT mass spectrometer. Milli-Q water, containing 0.1% formic acid, and acetonitrile, containing 0.1% formic acid, were used as eluents. A gradient of 1–99% acetonitrile in 20 min was used.

albumin = target: T1, albumin (Bos taurus, UniProt P02769); test: SEC-ICP-MS albumin binding and serum stability in fetal calf serum; type: in vitro ADME; settings: FCS + 150 mM phosphate buffer pH 7.4, 37 °C
T1 construct: FCS was purchased from Sigma-Aldrich and buffered with 150 mM phosphate buffer (pH 7.4); tissue Sigma-Aldrich; host or cells: fetal calf serum
Experimental: FCS was purchased from Sigma-Aldrich and buffered with 150 mM phosphate buffer (pH 7.4) to guarantee a stable pH. The maleimide-bearing platinum(IV) complexes were dissolved in 10% DMF in 150 mM phosphate buffer (pH 7.4) to 1 mM and diluted 1:10 in serum to obtain a final concentration of 100 μM. The samples were then incubated in the autosampler at 37 °C for 24 h and analyzed every 1 h. Between each sample, a pure water blank was measured. For SEC–ICP–MS measurements, an Agilent 1260 Infinity system coupled to an Agilent 7800 ICP–MS equipped with a dynamic reaction cell was used. Oxygen (purity 5.5, Messer Austria GmbH, Gumpoldskirchen, Austria) was used as reaction gas.

[9] = UHPLC reduction experiments with L-ascorbic acid; type: physicochemical; settings: 1 mM complex, 10-fold excess AA, phosphate buffer pH 7.4, 1% DMF, 20 °C
Experimental: The platinum(IV)–succinimide complexes were dissolved in 2% DMF in phosphate buffer (500 mM, pH 7.4) to a final concentration of 2 mM. The solutions were then mixed 1:1 with a 20 mM stock of L-ascorbic acid in phosphate buffer (500 mM, pH 7.4) to obtain final concentrations of 1 mM complex, 10 mM L-ascorbic acid, and 1% DMF. The samples were incubated at 20 °C and measured on a Dionex UltiMate 3000 RS UPLC system with a Waters Acquity UPLC BEH C18 column (3 × 50 mm, pore size 1.7 μm) and absorption detection at 220 nm. Data points were taken at t = 0 and every 30 min for 6 h.

[10] = 48 h incubation, with 5 equiv AA, read-out: CT26 IC50 values +AA, mean ± SD
[11] = 48 h incubation, without AA, read-out: CT26 IC50 values, mean ± SD
[12] = 72 h incubation, with 5 eq. AA, read-out: CT26 IC50 values + 5 eq. AA, mean
[13] = 72 h incubation, without AA, read-out: CT26 IC50 values, mean
[14] = 48 h incubation, with 5 equiv AA, read-out: HCT116 IC50 values +AA, mean ± SD
[15] = 48 h incubation, without AA, read-out: HCT116 IC50 values, mean ± SD
[16] = 72 h incubation, with 5 eq. AA, read-out: HCT116 IC50 values + 5 eq. AA, mean
[17] = 72 h incubation, without AA, read-out: HCT116 IC50 values, mean
[18] = with 5 eq. AA, read-out: SKOV3 IC50 values + 5 eq. AA, mean
[19] = without AA, read-out: SKOV3 IC50 values, mean

T1 sequence (P02769 25-607): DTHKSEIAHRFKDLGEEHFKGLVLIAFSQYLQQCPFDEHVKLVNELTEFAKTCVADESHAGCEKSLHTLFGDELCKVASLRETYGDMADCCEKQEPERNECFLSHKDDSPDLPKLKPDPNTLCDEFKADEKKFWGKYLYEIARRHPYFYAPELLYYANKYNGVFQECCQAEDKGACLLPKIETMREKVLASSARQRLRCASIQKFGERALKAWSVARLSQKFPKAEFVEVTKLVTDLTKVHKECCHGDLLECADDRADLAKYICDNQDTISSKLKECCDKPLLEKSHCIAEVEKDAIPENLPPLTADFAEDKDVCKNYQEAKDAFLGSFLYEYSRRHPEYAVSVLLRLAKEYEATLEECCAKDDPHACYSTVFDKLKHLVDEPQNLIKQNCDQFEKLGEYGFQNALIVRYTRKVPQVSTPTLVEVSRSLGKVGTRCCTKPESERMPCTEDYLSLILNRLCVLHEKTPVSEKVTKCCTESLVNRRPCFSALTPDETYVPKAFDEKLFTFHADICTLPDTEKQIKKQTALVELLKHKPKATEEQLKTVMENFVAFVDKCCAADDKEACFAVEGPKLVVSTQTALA

| SMILES | platinum levels in blood plasma [1] | anticancer activity against CT26 tumors (in words) [2] | IC50 [3] | IC50 [4] | IC50 [5] | IC50 [6, 10] | IC50 [6, 11] | IC50 [6, 12] | IC50 [6, 13] | IC50 [7, 14] | IC50 [7, 15] | IC50 [7, 16] | IC50 [7, 17] | IC50 (SKOV3 cancer cells) | IC50 (human SKOV3 cancer cells; [18]) | IC50 (human SKOV3 cancer cells; [19]) | ratio (IC50 without AA / with AA), CT26 ([6]; 48 h) | ratio (IC50 without AA / with AA), CT26 ([6]; 72 h) | ratio (IC50 without AA / with AA), HCT116 ([7]; 48 h) | ratio (IC50 without AA / with AA), HCT116 ([7]; 72 h) | also measured |
| --- | --- | --- | --- | --- | --- | --- | --- | --- | --- | --- | --- | --- | --- | --- | --- | --- | --- | --- | --- | --- | --- |
| Cn1cc(C[C@@H](NC(=O)[O][Pt]2([O]C(=O)NCCCCCN3C(=O)C=CC3=O)[O]C(=O)C(=O)[O]2)C(=O)O)c2ccccc21.N[C@@H]1CCCC[C@H]1N [MalCa/IdoCa, (OC-6-24)-[(R)-(1-Carboxy-2-(1-methyl-1H-indol-3-yl)ethyl)carbamato][(1R,2R)-1,2-cyclohexanediamino][5-(2,5-dioxo-2,5-dihydro-1H-pyrrol-1-yl)pentylcarbamato]oxalatoplatinum(IV)] | 6.4 mg/kg | significant anticancer activity | – | – | – | – | – | – | – | – | – | – | – | – | – | – | – | – | – | – | Platinum ratio tumor:kidney ([1]; ratio of mean platinum levels): 0.5; Platinum ratio tumor:liver ([1]; ratio of mean platinum levels): 0.5; activity directly compared to oxaliplatin: tumor growth and overall survival [2]: superior to oxaliplatin |
| Cn1cc(CC([NH3+])C(=O)[O][Pt]23([O]C(=O)CCCCCN4C(=O)C=CC4=O)([NH]C4CCCCC4[NH]2)[O]C(=O)C(=O)[O]3)c2ccccc21.O=C([O-])C(F)(F)F [MalEs/IdoEs, (OC-6-44)-[(R)-2-Ammonio-3-(1-methyl-1H-indol-3-yl)propanoato][(1R,2R)-1,2-yclohexanediamino][6-(2,5-dioxo-2,5-dihydro-1H-pyrrol-1-yl)hexanoato]oxalatoplatinum(IV) Trifluoroacetate] | 3.7 mg/kg | inactive | – | – | – | – | – | – | – | – | – | – | – | – | – | – | – | – | – | – | – |
| CC(=O)[O][Pt]1([O]C(C)=O)[O]C(=O)C(=O)[O]1.N[C@@H]1CCCC[C@H]1N [OAc/OAc, reference compound] | – | – | 43.5 µM | 33.6 µM | 12.2 µM | 22.6 ± 0.16 µM | 25.7 ± 1.4 µM | 33.5 µM | 42.3 µM | 20.1 ± 1.57 µM | 26.6 ± 2.41 µM | 11.5 µM | 14.3 µM | – | – | – | – | – | – | – | – |
| Cn1cc(CC(NC(=O)[O][Pt]23([O]C(=O)NCCCCCN4C(=O)CCC4=O)([NH]C4CCCCC4[NH]2)[O]C(=O)C(=O)[O]3)C(=O)O)c2ccccc21 [SucCa/IdoCa, (OC-6-24)-[(R)-(1-Carboxy-2-(1-methyl-1H-indol-3-yl)ethyl)carbamato][(1R,2R)-1,2-cyclohexanediamino][(5-(2,5-dioxopyrrolidin-1-yl)pentyl)carbamato]oxalatoplatinum(IV)] | – | – | > 100 µM | > 100 µM | 81.2 µM | 38.8 ± 3.84 µM | > 100 µM | 43.6 µM | 82.5 µM | 43.3 ± 2.1 µM | > 100 µM | 24.7 µM | – | 54.6 ± 14.1 µM | > 100 µM | > 100 µM | ≥2.6 | 1.89 | ≥2.3 | ≥ 4 | log D7.4 [8]: –1.49; still present as platinum(IV) species after 72 h (SKOV3 cell lysates): ~50%; albumin binding in serum (in words) (albumin): significant binding to albumin (tR ~4 min) could be observed for any of the compounds; complex intact after 6 h [9]: 90% |
| CC(=O)[O][Pt]1([O]C(=O)NCCCCCN2C(=O)CCC2=O)[O]C(=O)C(=O)[O]1.N[C@@H]1CCCC[C@H]1N [SucCa/OAc, (OC-6-34)-Acetato[(1R,2R)-1,2-cyclohexanediamine]oxalato[(5-(2,5-dioxopyrrolidin-1-yl)pentyl)carbamato]platinum(IV)] | – | – | > 100 µM | > 100 µM | 50.8 µM | 28.2 ± 1.81 µM | 75.21 ± 0.11 µM | 40.4 µM | 55.2 µM | 34 ± 1.58 µM | > 100 µM | 21.8 µM | 42 µM | 29.7 ± 0.3 µM | > 100 µM | > 100 µM | 2.67 | 1.37 | ≥2.9 | 1.93 | – |
